Key:
[1] = Penetration ability log Kow; format: physicochemical
Description: A water suspension of liposomes was prepared with 1.5% of hydrophilic molecule A or 300 ppm (0.03%) hydrophilic molecule B, and 27% Pro-Lipo™ Neo. […] Molecule B was a hexapeptide (hexapeptide-38) with a molecular weight of (870 g/mol) and a penetration ability log Kow of −1.13. A water solution with 1.5% A or 300 ppm B was used as a control (non-entrapped molecule).

[2] = system: macrophages (RAW-Difluo mLC3 autophagy reporter cells) phagocytosing human red blood cells; experiment: Macrophage phagocytosis of red blood cells (heme absorbance); format: cell-based; settings: FIG. 6; 24 h; peptide alone; tripeptide-1 2.9 ug/mL, hexapeptide-11 100 ug/mL, hexapeptide-12 2.9 ug/mL
Description: The assay was performed according to manufacturer's instructions (Cell BioLabs, Inc.). Macrophages used were RAW-Difluo mLC3 autophagy reporter cells. Human red blood cells (RBCs) were obtained from ZenBio (catalog number SER-10MLRBC). Briefly, 24 hours before the assay, macrophages were plated on 96-well plates. One plate was plated with 12,500 macrophages and a second plate with 25,000 macrophages. The day of the assay, human red blood cells (RBCs) were opsonized with human RBC antibody. As a negative control, sheep RBCs were opsonized with human RBC antibody. The media was then replaced with either peptide or no peptide. Blood was added to the plates at a 200:1 RBC to macrophage ratio. Phagocytosis was measured beginning at 2 hours after blood was added. The media and blood were removed from the wells of the plate. The plate was washed once with RBC lysis buffer to remove non-phagocytosed RBCs followed by two washes with PBS. Macrophage lysis buffer was then added to the plate and the lysed solution was transferred to a 96-well plate. The substrate solution to detect heme was added to the 96-well plate and absorbance was recorded at 1 minute, 5 minutes, 10, minutes, and 20 minutes. FIGS. 1B-1C show images of macrophage phagocytosis prior to red blood cell (RBC) washout (FIG. 1B) and after RBC washout (FIG. 1C). Arrows indicate macrophages with RBCs (hollow circles). […]

[3] = system: dermal and epidermal hyaluronic acid level; settings: ex vivo human skin model; cited from earlier work

## Cn1c(=O)c2c(ncn2C)n(C)c1=O [Molecule A, caffeine]
[1]
  penetration ability log Kow: −0.07

## tripeptide-1
[2]
  phagocytosis relative to NT control: decrease or no change

## hexapeptide-11
[2]
  phagocytosis relative to NT control: decrease or no change

## CCCCCCCC(=O)CCc1ccc(O)c(OC)c1 [Hydroxymethoxyphenyl decanone]
[3]
  stimulation of dermal hyaluronic acid level versus placebo: 259%
  stimulation of epidermal hyaluronic acid level versus placebo: 198%

Reference: US12214009B2, “Compositions and methods for improving bruising and rejuvenating skin” (Alastin Skincare, Inc., priority 2019, dated 2025)
